Among the data in patent publication US20220089575A1, “FARNESOID X RECEPTOR AGONISTS AND USES THEREOF” (Metacrine, Inc., priority 2017, published 2022) are EC50 values, retold here.

In general, EC50 refers to the concentration that produces a half-maximal response. High values mean a need for much substance, low ones an effect from little substance.

This test deals with T1, hFXR (Homo sapiens, UniProt Q96RI1).
T1 construct: expressed in transfected cells; host or cells: CV-1 cells
T1 sequence (Q96RI1 1-486): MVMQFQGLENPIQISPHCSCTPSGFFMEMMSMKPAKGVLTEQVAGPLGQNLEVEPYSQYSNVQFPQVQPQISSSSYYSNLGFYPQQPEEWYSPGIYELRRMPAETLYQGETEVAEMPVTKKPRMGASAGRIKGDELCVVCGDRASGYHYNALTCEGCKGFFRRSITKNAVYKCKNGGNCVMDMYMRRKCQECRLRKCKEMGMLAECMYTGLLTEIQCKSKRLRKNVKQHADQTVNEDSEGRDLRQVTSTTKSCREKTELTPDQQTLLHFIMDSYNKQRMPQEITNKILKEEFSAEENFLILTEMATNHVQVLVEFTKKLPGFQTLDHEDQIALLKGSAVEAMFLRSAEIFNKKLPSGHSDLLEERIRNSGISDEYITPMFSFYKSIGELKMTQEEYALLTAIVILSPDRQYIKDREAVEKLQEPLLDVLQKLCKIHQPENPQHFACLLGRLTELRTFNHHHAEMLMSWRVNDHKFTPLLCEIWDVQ
T1 sequence (P19793 1-462 partner): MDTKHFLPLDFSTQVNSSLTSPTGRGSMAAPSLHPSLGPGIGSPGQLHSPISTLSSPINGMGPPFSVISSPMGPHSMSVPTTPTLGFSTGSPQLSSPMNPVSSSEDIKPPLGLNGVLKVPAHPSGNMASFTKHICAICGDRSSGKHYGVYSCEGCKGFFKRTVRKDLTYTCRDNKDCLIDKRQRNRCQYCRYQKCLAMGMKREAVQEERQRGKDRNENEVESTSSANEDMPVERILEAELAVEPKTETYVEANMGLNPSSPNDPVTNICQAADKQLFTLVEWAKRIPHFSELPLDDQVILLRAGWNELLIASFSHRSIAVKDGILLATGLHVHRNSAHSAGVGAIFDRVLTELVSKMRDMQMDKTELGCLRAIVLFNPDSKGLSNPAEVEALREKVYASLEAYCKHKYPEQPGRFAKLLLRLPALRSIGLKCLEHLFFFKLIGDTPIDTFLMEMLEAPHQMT
The experiment in a line: In Vitro FXR Assay (TK): TK-ECRE-luc reporter in transfected CV-1 cells. The format is cell-based. Conditions: 18 hrs, luminescence, maximum efficacy of <25% of the Fexarmine control classified as '+'. In outline: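 Reporter transactivation by hFXR was measured in CV-1 cells carrying hRXR and a TK-ECRE-luc construct, with compound treatment for 18 h before lysis and luminescence detection.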

Bounds are passed on as bounds.

`CN(C)c1ccc([C@H]2CC[C@H](CN(c3cccc(-c4cnn(C5CC5)c4)c3)C(=O)[C@H]3CC[C@H](OC(=O)NCCO)CC3)CC2)cn1` [Compound 6.08, trans-4-((3-(1-Cyclopropyl-1H-pyrazol-4-yl)phenyl)((trans-4-(6-(dimethylamino)pyridin-3-yl)cyclohexyl)methyl)carbamoyl)cyclohexyl (2-hydroxyethyl)carbamate] gave an EC50 of at most 250 nM. As for `COc1ccc([C@H]2CC[C@H](CN(c3cc(-c4cnn(C(C)C)c4)ccn3)C(=O)[C@H]3CC[C@H](OC(=O)N4CC(CO)C4)CC3)CC2)cc1C#N` [Compound 7.51, trans-4-(((trans-4-(3-Cyano-4-methoxyphenyl)cyclohexyl)methyl)(4-(1-isopropyl-1H-pyrazol-4-yl)pyridin-2-yl)carbamoyl)cyclohexyl 3-(hydroxymethyl)azetidine-1-carboxylate], the EC50 was at most 250 nM. `COc1ccc([C@H]2CC[C@H](CN(c3cc(-c4coc(C5CC5)n4)ccn3)C(=O)[C@H]3CC[C@H](OC(=O)NCCO)CC3)CC2)cc1C` [Compound 6.52, trans-4-((4-(2-Cyclopropyloxazol-4-yl)pyridine-2-yl)((trans-4-(4-methoxy-3-methylphenyl)cyclohexyl)methyl)carbamoyl)cyclohexyl (2-hydroxyethyl) carbamate]: the EC50 is at most 250 nM. With `CNC(=O)O[C@H]1CC[C@H](C(=O)N(C[C@H]2CC[C@H](c3ccc(OC)c(C)n3)CC2)c2cc(-c3cnn(C(C)C)c3)ccn2)CC1` [Compound 5.24, trans-4-((4-(1-Isopropyl-1H-pyrazol-4-yl)pyridin-2-yl)((trans-4-(5-methoxy-6-methylpyridin-2-yl)cyclohexyl)methyl)carbamoyl)cyclohexyl methylcarbamate], the 50% effective concentration (EC50) was at most 250 nM. In the case of `COc1ccc([C@H]2CC[C@H](CN(c3cccc(-c4cnc(C5CC5)s4)c3)C(=O)[C@H]3CC[C@H](NC(=O)CC[S+](C)[O-])CC3)CC2)cc1C` (stereo partly drawn) [Compound 31.13, trans-N-(3-(2-Cyclopropylthiazol-5-yl)phenyl)-N-((trans-4-(4-methoxy-3-methylphenyl)cyclohexyl)methyl)-4-(3-(methylsulfinyl)propanamido) cyclohexanecarboxamide], the EC50 lay within 250 to 1000 nM.

The compound `COc1ccc([C@H]2CC[C@H](CN(c3cccc(-c4cnn(C(C)C)c4)c3)C(=O)[C@H]3CC[C@H](OC(=O)N4CC(O)C4)CC3)CC2)cc1C#N` [Compound 7.20, trans-4-(((trans-4-(3-Cyano-4-methoxyphenyl)cyclohexyl)methyl)(3-(1-isopropyl-1H-pyrazol-4-yl)phenyl)carbamoyl)cyclohexyl 3-hydroxyazetidine-1-carboxylate] had an EC50 of at most 250 nM. Compound `CNC(=O)O[C@H]1CC[C@H](C(=O)N(C[C@H]2CC[C@H](c3ccc(OC)c(C#N)n3)CC2)c2cccc(-c3coc(C4CC4)n3)c2)CC1` [Compound 5.42, trans-4-(((trans-4-(6-Cyano-5-methoxypyridin-2-yl)cyclohexyl)methyl)(3-(2-cyclopropyloxazol-4-yl)phenyl)carbamoyl)cyclohexyl methylcarbamate] displayed an EC50 of at most 250 nM. The same measure for `CCOC(=O)C[C@H]1CC[C@H](C(=O)N(C[C@H]2CC[C@H](c3ccc(OC)c(C#N)c3)CC2)c2cc(-c3cnn(C(C)C)c3)ccn2)CC1` [Compound 18.21, Ethyl 2-(trans-4-(((trans-4-(3-cyano-4-methoxyphenyl)cyclohexyl)methyl)(4-(1-isopropyl-1H-pyrazol-4-yl)pyridin-2-yl)carbamoyl)cyclohexyl)acetate]: at most 250 nM; for `COc1ccc([C@H]2CC[C@H](CN(c3cc(-c4cnn(C(C)C)c4)ccn3)C(=O)[C@H]3CC[C@H](CC(=O)O)CC3)CC2)nc1C#N` [Compound 17.27, 2-(trans-4-(((trans-4-(6-Cyano-5-methoxypyridin-2-yl)cyclohexyl)methyl)(4-(1-isopropyl-1H-pyrazol-4-yl)pyridin-2-yl)carbamoyl)cyclohexyl)acetic acid]: at least 1000 nM; for `COc1ccc([C@H]2CC[C@H](CN(c3cccc(-c4cnc(C5CC5)s4)c3)C(=O)[C@H]3CC[C@H](NC(=O)COCCO)CC3)CC2)cc1C` [Compound 32.02, trans-N-(3-(2-Cyclopropylthiazol-5-yl)phenyl)-4-(2-(2-hydroxyethoxy)acetamido)-N-((trans-4-(4-methoxy-3-methylphenyl)cyclohexyl)methyl) cyclohexanecarboxamide]: at most 250 nM. `COc1ccc([C@H]2CC[C@H](CN(c3cccc(-c4cnn(C5CC5)c4)c3)C(=O)[C@H]3CC[C@H](C(=O)O)CC3)CC2)cc1Cl` [Compound 17.15, trans-4-(((trans-4-(3-Chloro-4-methoxyphenyl)cyclohexyl)methyl)(3-(1-cyclopropyl-1H-pyrazol-4-yl)phenyl)carbamoyl) cyclohexanecarboxylic acid]: the EC50 is at most 250 nM. In the case of `COC(=O)NC[C@H]1CC[C@H](C(=O)N(C[C@H]2CC[C@H](c3ccc(OC)c(C)c3)CC2)c2cccc(-c3cnc(OC)s3)c2)CC1` [Compound 25.07, Methyl ((trans-4-(((trans-4-(4-methoxy-3-methylphenyl)cyclohexyl)methyl)(3-(2-methoxythiazol-5-yl)phenyl)carbamoyl)cyclohexyl)methyl)carbamate], the EC50 was at most 250 nM. As to `COc1ccc([C@H]2CC[C@H](CN(c3cc(-c4coc(C5CC5)n4)ccn3)C(=O)[C@H]3CC[C@H](OC(=O)NC[C@@H](C)O)CC3)CC2)nc1C` [Compound 6.95, trans-4-((4-(2-Cyclopropyloxazol-4-yl)pyridin-2-yl)((trans-4-(5-methoxy-6-methylpyridin-2-yl)cyclohexyl)methyl)carbamoyl)cyclohexyl ((R)-2-hydroxypropyl)carbamate], the EC50 was at most 250 nM.

`COc1ccc([C@H]2CC[C@H](CN(c3cccc(-c4coc(C5CC5)n4)c3)C(=O)[C@H]3CC[C@H](CC(=O)O)CC3)CC2)cc1C#N` [Compound 21.05, 2-(trans-4-(((trans-4-(3-Cyano-4-methoxyphenyl)cyclohexyl)methyl)(3-(2-cyclopropyloxazol-4-yl)phenyl)carbamoyl)cyclohexyl)acetic acid]: the EC50 is at most 250 nM. Compound `CNC(=O)O[C@H]1CC[C@H](C(=O)N(C[C@H]2CC[C@H](c3ccc(OC)c(C)n3)CC2)c2cccc(-c3cnc(C4CC4)s3)c2)CC1` [Compound 2.02, trans-4-((3-(2-Cyclopropylthiazol-5-yl)phenyl)((trans-4-(5-methoxy-6-methylpyridin-2-yl)cyclohexyl)methyl)carbamoyl)cyclohexyl methylcarbamate] displayed an EC50 of at most 250 nM. The same measure for `COc1ccc([C@H]2CC[C@H](CN(c3cccc(-c4cnc(C5CC5)s4)c3)C(=O)[C@H]3CC[C@H](OC(=O)N4CC(O)C4)CC3)CC2)cc1C` [Compound 7.02, trans-4-((3-(2-Cyclopropylthiazol-5-yl)phenyl)((trans-4-(4-methoxy-3-methylphenyl)cyclohexyl)methyl)carbamoyl)cyclohexyl 3-hydroxyazetidine-1-carboxylate]: at most 250 nM; for `CN(C)c1ccc([C@H]2CC[C@H](CN(c3cccc(-c4cnc(C5CC5)s4)c3)C(=O)[C@H]3CC[C@H](OC(=O)N4CC(O)C4)CC3)CC2)cn1` [Compound 7.01, trans-4-((3-(2-Cyclopropylthiazol-5-yl)phenyl)((trans-4-(6-(dimethylamino)pyridin-3-yl)cyclohexyl)methyl)carbamoyl)cyclohexyl 3-hydroxyazetidine-1-carboxylate]: at most 250 nM; for `CNC(=O)O[C@H]1CC[C@H](C(=O)N(C[C@H]2CC[C@H](c3ccc(OC)c(C#N)n3)CC2)c2cc(-c3cnn(C4CC4)c3)ccn2)CC1` [Compound 5.27, trans-4-(((trans-4-(6-Cyano-5-methoxypyridin-2-yl)cyclohexyl)methyl)(4-(1-cyclopropyl-1H-pyrazol-4-yl)pyridin-2-yl)carbamoyl)cyclohexyl methylcarbamate]: at most 250 nM.
